Literature values as cited in article doi:10.1101/2020.07.01.182659 (bioRxiv, 2020).

Row | Substance | Km (ACE2) [µM] | kcat/Km (ACE2) [M⁻¹ s⁻¹] | affinity to APJR (in words) (APJR) | decrease of potency after cleavage of C-terminal phenylalanine (APJR) | loss of potency on removal of C-terminal lysine (opioid receptors) [%] | ACE2 activity on peptide (in words) (ACE2)
1 | QRPRLSHKGPMP↓F [Apelin-13] | < 10 | > 1e+06 | nanomolar affinity | 2–5 fold |  | 
2 | YGGFLRRIRPKL↓K [Dynorphin A 1–13] | < 10 | > 1e+06 |  |  | 90 | good ACE2 substrate
3 | YPFVEP↓I [β–Casomorphin] |  |  |  |  |  | good ACE2 substrate
